Test results published in patent publication US9199918B2, “Small molecule inhibitors of AGBL2” (Georgetown University, priority 2011, dated 2015).

B1: RARRES1: recombinant N-His RARRES1 protein (MW ~31 kDa) obtained from inclusion bodies (protein, UniProt P49788 1-294, looked up)
Retinoic acid receptor …: MQPRRQRLPAPWSGPRGPRPTAPLLALLLLLAPVAAPAGSGDPDDPGQPQDAGVPRRLLQQAARAALHFFNFRSGSPSALRVLAEVQEGRAWINPKEGCKVHVVFSTERYNPESLLQEGEGRLGKCSARVFFKNQKPRPTINVTCTRLIEKKKRQQEDYLLYKQMKQLKNPLEIVSIPDNHGHIDPSLRLIWDLAFLGSSYVMWEMTTQVSHYYLAQLTSVRQWKTNDDTIDFDYTVLLHELSTQEIIPCRIHLVWYPGKPLKVKYHCQELQTPEEASGTEEGSAVVPTELSNF
modifications: N-terminal His tag
notes: recombinant N-His RARRES1 protein (MW ~31 kDa) obtained from inclusion bodies

biological target: T1, AGBL2 (Homo sapiens, UniProt Q5U5Z8); assay: Enzyme inhibition kinetic assay (fluorometric, release of tyrosine from hydroxycoumarin-conjugated tubulin CTT substrate); type: biochemical; conditions: 1 nM recombinant AGBL2; substrate 1 μM; 25° C., pH 7.5; apparent Ki fitted to Morrison equation for tight-binding inhibitors
T1 construct: His (N); made in house; protein recovered from inclusion bodies
T1 sequence (Q5U5Z8 1-902): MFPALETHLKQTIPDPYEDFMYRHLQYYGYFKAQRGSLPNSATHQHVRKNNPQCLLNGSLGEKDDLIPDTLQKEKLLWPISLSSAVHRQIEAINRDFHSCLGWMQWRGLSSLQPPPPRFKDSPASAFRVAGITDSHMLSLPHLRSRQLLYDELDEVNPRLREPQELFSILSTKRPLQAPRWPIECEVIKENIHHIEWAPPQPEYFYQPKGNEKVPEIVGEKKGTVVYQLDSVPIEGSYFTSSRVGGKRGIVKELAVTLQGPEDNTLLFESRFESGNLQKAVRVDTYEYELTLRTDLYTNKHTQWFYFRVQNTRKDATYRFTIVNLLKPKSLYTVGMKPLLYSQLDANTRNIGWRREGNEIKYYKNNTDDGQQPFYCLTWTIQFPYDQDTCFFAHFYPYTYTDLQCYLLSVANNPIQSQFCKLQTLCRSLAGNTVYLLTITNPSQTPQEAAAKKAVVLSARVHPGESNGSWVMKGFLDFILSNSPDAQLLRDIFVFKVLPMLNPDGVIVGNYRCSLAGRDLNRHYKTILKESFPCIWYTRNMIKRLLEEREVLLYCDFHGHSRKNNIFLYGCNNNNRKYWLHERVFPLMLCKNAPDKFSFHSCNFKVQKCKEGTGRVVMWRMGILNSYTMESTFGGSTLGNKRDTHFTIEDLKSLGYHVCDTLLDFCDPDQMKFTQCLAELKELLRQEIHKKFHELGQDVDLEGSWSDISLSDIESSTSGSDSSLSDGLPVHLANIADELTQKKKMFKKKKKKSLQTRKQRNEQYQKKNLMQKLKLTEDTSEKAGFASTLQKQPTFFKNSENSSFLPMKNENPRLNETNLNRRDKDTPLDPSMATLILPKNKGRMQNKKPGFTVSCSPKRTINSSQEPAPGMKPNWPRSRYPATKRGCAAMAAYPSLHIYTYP
Text: Fluorescence Resonance Energy Transfer (FRET) principle can be applied to generate real-time enzymatic activity data. The tyrosinated C-terminal tail of tubulin has a tyrosine at the C-terminal. Tyrosines absorb at 270 nm and emit in the 280 to 350 nm range with a λMax=303 nm. Adding a hydroxycoumarin that absorbs in the range of 300 to 350 nm to the N-terminal of the CTT of tubulin (see FIG. 5) allows the quenching of the tyrosine emission that can be monitored at 303 nm. Emissions at 303 nm can be detected after the cleavage of the tyrosine residue since the latter will follow a Brownian motion and become physical situated far from the quencher (Hydroxycoumarin). Assays can be performed at 25° C. in 10 mM CaCl2, 0.2 M NaCl, and 0.05% Brij-35 in 50 mM HEPES, pH 7.5, over a substrate concentration range of […] and an enzyme concentration range of 0.1-50 nM. An exemplary assay was performed by incubating 186 μL of buffer solution, 4 μL of substrate solution, and then adding 10 μL of AGBL2 solution. The mixture was then incubated for 15 to 120 minutes at 25° C.
Kinetic assays of the inhibition of AGBL2 were carried out using the substrate described in Example 4 to measure inhibition constants. Enzymatic assays were performed at 25° C. in 50 mM HEPES buffer at pH 7.5 in the presence of 10 mM CaCl2, 0.2 M NaCl, and 0.01% or 0.05% Brij-35 with substrate concentrations of 1 μM. The release of tyrosine was monitored by measuring fluorescence (excitation and emission wavelengths of 270 nm and 303 nm, respectively). The compounds tested as inhibitors included compound Sd-1, compound Sd-2, compound Sd-3, and compound Sd-4. All stock solutions of inhibitors were in methanol. For inhibition assays, 10 μL of inhibitor stock solution, 176 μL of assay buffer, and 10 μL of enzyme stock solution were mixed and incubated for 30 to 60 minutes prior to initiation of the assay, which was accomplished by adding and mixing 4 μL of substrate stock solution. Enzyme concentrations ranged from 0.2 to 7 nM during the assay. Apparent inhibition constant (Ki^app) values were calculated by fitting the kinetics data to the Morrison equation for tight-binding inhibitors, where vi and vo are the initial rates with and without inhibitor, respectively, and [E]o and [I]o are the initial (total) enzyme and inhibitor concentrations, respectively. The Ki values of the four tested compounds and of recombinant RARRES1, all including 1 nM of recombinant AGBL2) are shown in Table 1.

**Q.** For `Cc1cc(F)cnc1CC(=O)O` [Sd-1], which Ki is on record?
**A.** The Ki was 173 nM.

**Q.** With `O=C(O)Cc1cccc(C(=O)Nc2ccc3c(c2)OCO3)c1` [Sd-4] as the molecule, how does the Ki read?
**A.** Its Ki is 4.89 nM.

**Q.** `CC(C)c1ccc(Sc2ccc(F)cc2CC(=O)O)cc1` [Sd-3] was tested. Which Ki did it give?
**A.** The Ki was 428 nM.

**Q.** For `Cc1cc(C(F)(F)F)cnc1CC(=O)O` [Sd-2], which Ki is on record?
**A.** Its Ki is 87 nM.

**Q.** For B1, which Ki is on record?
**A.** The Ki was 27 nM.

biological target: T1, AGBL2; assay: High throughput enzyme kinetic (FRET) assay, saturation curves in the presence of inhibitor; type: biochemical; conditions: AGBL2 1 nM; Sd-4 at 1 nM, 5 nM and 10 nM; substrate 0 to 3 μM
Text: Fluorescence Resonance Energy Transfer (FRET) principle can be applied to generate real-time enzymatic activity data. The tyrosinated C-terminal tail of tubulin has a tyrosine at the C-terminal. Tyrosines absorb at 270 nm and emit in the 280 to 350 nm range with a λMax=303 nm. Adding a hydroxycoumarin that absorbs in the range of 300 to 350 nm to the N-terminal of the CTT of tubulin (see FIG. 5) allows the quenching of the tyrosine emission that can be monitored at 303 nm. Emissions at 303 nm can be detected after the cleavage of the tyrosine residue since the latter will follow a Brownian motion and become physical situated far from the quencher (Hydroxycoumarin). […]
The reaction rate can be analyzed using different substrate concentrations and the saturation curve can be drawn. The maximum reaction rate (Vmax) and the substrate concentration at half the Vmax referred to as the Michaelis-Menten constant (KM) can be determined from the saturation curve. Inhibitors can also be analyzed and a saturation curve in the presence of inhibitor can be drawn. The reaction rate was analyzed using substrate concentrations over a range of 0 to 3 μM. […] The dissociation constant of the inhibitor (Ki) can be calculated using the following equation: Ki=[Inhibitor]/((KM,obs/KM)−1.0).

**Q.** How did the “inhibition of AGBL2 activity at varying substrate concentrations (FIG. 6)” value turn out when `O=C(O)Cc1cccc(C(=O)Nc2ccc3c(c2)OCO3)c1` [Sd-4] was run?
**A.** Its value is “inhibition of AGBL2 activity”.
